In US10071164B2, “Estrogen-related receptor alpha based protac compounds and associated methods of use” (Yale University, priority 2014, dated 2018):

Each compound was assayed against T1, ERRα (Homo sapiens, UniProt P11474) (assay: ERRα degradation in MCF-7 cells). Details: MCF7, column A, read-out: ERRα Degradation Dmax (Estimated) MCF-7 cells.
T1 sequence (P11474 1-423): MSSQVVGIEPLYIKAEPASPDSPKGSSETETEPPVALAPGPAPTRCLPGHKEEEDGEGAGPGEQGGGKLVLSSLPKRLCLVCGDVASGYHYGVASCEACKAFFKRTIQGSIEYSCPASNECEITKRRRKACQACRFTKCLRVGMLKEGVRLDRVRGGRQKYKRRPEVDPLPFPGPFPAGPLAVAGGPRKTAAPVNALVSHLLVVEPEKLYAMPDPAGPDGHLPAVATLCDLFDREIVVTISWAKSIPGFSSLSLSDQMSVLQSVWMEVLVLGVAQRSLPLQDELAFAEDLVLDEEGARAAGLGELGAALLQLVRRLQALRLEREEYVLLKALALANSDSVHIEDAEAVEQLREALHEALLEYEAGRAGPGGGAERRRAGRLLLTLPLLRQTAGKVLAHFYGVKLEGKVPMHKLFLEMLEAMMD
Type: cell-based
Parameters: endogenous in cells; host or cells: MCF-7 (ATCC)
Experimental: Human MDA-MB-231 and MCF7 cells (purchased authenticated ATCC cell lines) were cultured in complete growth medium (Dulbecco's modified Eagle's medium (DMEM)/F12 supplemented with 10% FBS; Life Technologies) and grown at 37° C. with 5% CO2. THP-1 cells (ATCC) were cultured in RPMI 1640+10% FBS and were grown at 37° C. with 5% CO2. For cellular degradation of ERRα, MCF7 cells were seeded in a 24-well plate at 70% confluency, allowed to attach overnight, and incubated with the indicated compounds. For cellular degradation of RIPK2, 5×10^6 cells were incubated with the indicated compounds. When indicated, a 1-hour pretreatment with 1 μM epoxomicin was performed before the addition of compound. When indicated for washout studies, after PROTAC treatment, cells were washed repeatedly with PBS and incubated with complete medium for the indicated time before harvesting. The THP1 cell line has been authenticated using the Promega GenePrint10 kit to generate a STR Profile for comparison to the expected profile reported by ATCC. Cells were also routinely tested and negative for mycoplasma. Cell lines were routinely tested for mycoplasma contamination at Clongen (Gaithersburg, Md.).
Total protein concentrations of tissue homogenates and cell lysates were determined by Pierce BCA kit (Thermo Fisher). Homogenates or lysates were separated on 4-12% NuPAGE gels (Life Technologies) and transferred onto PVDF membranes (iBlot; Life Technologies). Membranes were blocked with 5% non-fat milk in TBST (0.1% Tween-20 in Tris-Buffered Saline) before overnight incubation with indicated antibodies. After incubation with the appropriate horseradish peroxidase-conjugated secondary antibodies, the bands were visualized by enhanced chemiluminescence (Pierce West Femto ECL). The intensity of the bands was quantified with Bio-Rad Quantity One software. When the IRDye secondary antibodies were used, the infrared signal was detected using an Odyssey scanner (Li-COR Biosciences) and the densitometry was performed using the Odyssey 2.1 Analyser software. The IRDye secondary antibodies anti-mouse (926-32212) and anti-mouse (926-68072) were purchased from Li-COR Biosciences and used at a 1:5,000 dilution. Statistical analysis of tissue densitometry levels were performed with GraphPad Prism software using the indicated statistical test.
(§1) Using the methods as described herein, the following exemplary PROTAC compounds were prepared (see Table below). The exemplary compounds were also assayed for their ability to effectuate the degration of ERRα in either MCF-7 cells or ST-486 cells. Thus, in certain embodiments, the description provides the compounds below, including compositions comprising effective amount of a compound as listed below or a derivative, analog, or a prodrug of the same, in combination with at least one of a pharmaceutically acceptable carrier, another active agent, including a second PROTAC molecule as described herein or a combination thereof. In additional embodiments, the disclosure provides a method of treating a disease or condition in a subject in need thereof, comprising administering a composition comprising an effective amount of a compound listed below, wherein the composition is effective for treating or ameliorating a symptom of the disease or condition.
(§2) Legend for following table: A=ERRα Degradation Dmax (Estimated) MCF-7 cells; B=ERRα Degradation DC50 (Estimated) MCF-7 cells; C=ERRα Degradation Dmax (Estimated) ST-486 cells; D=ERRα Degradation DC50 (Estimated) ST-486 cells

| Compound | Dmax |
| --- | --- |
| COc1cc(/C=C2\SC(=O)N(CCOCCC(=O)N[C@H](C(=O)N3CC(O)C[C@H]3C(=O)NCc3ccc(-c4scnc4C)cc3)C(C)(C)C)C2=O)ccc1Oc1ccc(C#N)cc1C(F)(F)F (stereo partly drawn) [ARV N000020] | 98% |
| COc1cc(/C=C2\SC(=O)N(CCOCCOCCOCCOc3cc(-c4scnc4C)ccc3CNC(=O)[C@@H]3C[C@@H](O)CN3C(=O)[C@H](C(C)C)N3Cc4ccccc4C3=O)C2=O)ccc1Oc1ccc(C#N)cc1C(F)(F)F [ARV N000198] | 90% |
| COc1cc(/C=C2\SC(=O)N(CCOCCOCCCOCCOCCOc3cc(-c4scnc4C)ccc3CNC(=O)[C@@H]3C[C@@H](O)CN3C(=O)[C@H](C(C)C)N3Cc4ccccc4C3=O)C2=O)ccc1Oc1ccc(C#N)cc1C(F)(F)F [ARV N000199] | 90% |
| COc1cc(/C=C2\SC(=O)N(CCOCCOCCCCOCCCCOCCOCC(=O)N[C@H](C(=O)N3C[C@H](O)C[C@H]3C(=O)NCc3ccc(-c4scnc4C)cc3)C(C)(C)C)C2=O)ccc1Oc1ccc(C#N)cc1C(F)(F)F [ARV N000200] | 80% |
| COc1cc(/C=C2\SC(=O)N(CCOCCOCCOCCOCCOCCOc3cc(-c4scnc4C)ccc3CNC(=O)[C@@H]3C[C@@H](O)CN3C(=O)[C@H](C(C)C)N3Cc4ccccc4C3=O)C2=O)ccc1Oc1ccc(C#N)cc1C(F)(F)F [ARV N000220] | 85% |
| COc1cc(/C=C2\SC(=O)N(CCCCCOCCOCCC(=O)N[C@H](C(=O)N3CC(O)C[C@H]3C(=O)NCc3ccc(-c4scnc4C)cc3)C(C)(C)C)C2=O)ccc1Oc1ccc(C#N)cc1C(F)(F)F (stereo partly drawn) [ARV N000224] | 90% |
| COc1cc(/C=C2\SC(=O)N(CCOCCOCCCCCOCCOCCOc3cc(-c4scnc4C)ccc3CNC(=O)[C@@H]3C[C@@H](O)CN3C(=O)[C@H](C(C)C)N3Cc4ccccc4C3=O)C2=O)ccc1Oc1ccc(C#N)cc1C(F)(F)F [ARV N000231] | 98% |
| COc1cc(/C=C2\SC(=O)N(CCOCCOCCCCCOCCCCCOCCOCCOc3cc(-c4scnc4C)ccc3CNC(=O)[C@@H]3C[C@@H](O)CN3C(=O)[C@H](C(C)C)N3Cc4ccccc4C3=O)C2=O)ccc1Oc1ccc(C#N)cc1C(F)(F)F [ARV N000232] | 60% |

Next, values leading:

| Dmax | Compound |
| --- | --- |
| 90% | COc1cc(/C=C2\SC(=O)N(CCOCCOCCCCCOCCCCCOCCOCC(=O)N[C@H](C(=O)N3C[C@H](O)C[C@H]3C(=O)NCc3ccc(-c4scnc4C)cc3)C(C)(C)C)C2=O)ccc1Oc1ccc(C#N)cc1C(F)(F)F [ARV N000201] |
| 40% | COc1cc(/C=C2\SC(=O)N(CCOCCC(=O)N[C@H](C(=O)N3C[C@@H](O)C[C@H]3C(=O)NCc3ccc(-c4scnc4C)cc3)C(C)(C)C)C2=O)ccc1Oc1ccc(C#N)cc1C(F)(F)F [ARV N000203] |
| 98% | COc1cc(/C=C2\SC(=O)N(CCOCCOCCOCCOCCOc3cc(-c4scnc4C)ccc3CNC(=O)[C@@H]3C[C@@H](O)CN3C(=O)[C@H](C(C)C)N3Cc4ccccc4C3=O)C2=O)ccc1Oc1ccc(C#N)cc1C(F)(F)F [ARV N000219] |
| 90% | COc1cc(/C=C2\SC(=O)N(CCOCCCOCCCOc3cc(-c4scnc4C)ccc3CNC(=O)[C@@H]3C[C@@H](O)CN3C(=O)[C@H](C(C)C)N3Cc4ccccc4C3=O)C2=O)ccc1Oc1ccc(C#N)cc1C(F)(F)F [ARV N000222] |
| 80% | COc1cc(/C=C2\SC(=O)N(CCOCCOCCOCCOCCOCC(=O)N[C@H](C(=O)N3C[C@H](O)C[C@H]3C(=O)NCc3ccc(-c4scnc4C)cc3)C(C)(C)C)C2=O)ccc1Oc1ccc(C#N)cc1C(F)(F)F [ARV N000223] |
| 60% | COc1cc(/C=C2\SC(=O)N(CCCCOCCCCOCCCCOc3cc(-c4scnc4C)ccc3CNC(=O)[C@@H]3C[C@@H](O)CN3C(=O)[C@H](C(C)C)N3Cc4ccccc4C3=O)C2=O)ccc1Oc1ccc(C#N)cc1C(F)(F)F [ARV N000233] |
| 98% | COc1cc(/C=C2\SC(=O)N(CCOCCOCCOCCOCCOCCOCC(=O)N[C@H](C(=O)N3C[C@H](O)C[C@H]3C(=O)NCc3ccc(-c4scnc4C)cc3)C(C)(C)C)C2=O)ccc1Oc1ccc(C#N)cc1C(F)(F)F [ARV N000234] |
| 95% | COc1cc(/C=C2\SC(=O)N(CCOCCOCCCOCCOCCOCC(=O)N[C@H](C(=O)N3C[C@H](O)C[C@H]3C(=O)NCc3ccc(-c4scnc4C)cc3)C(C)(C)C)C2=O)ccc1Oc1ccc(C#N)cc1C(F)(F)F [ARV N000235] |

These compounds were tested against T1, ERRα (assay: ERRα degradation in ST-486 cells). Details: ST486, column C, read-out: ERRα Degradation Dmax (Estimated) ST-486 cells.
Type: cell-based
Parameters: degration of ERRα in either MCF-7 cells or ST-486 cells; endogenous in cells; host or cells: ST-486
Experimental: as §1, §2

| Compound | Dmax |
| --- | --- |
| COc1cc(/C=C2\SC(=O)N(CCCCOCCOCCOCC(=O)N[C@H](C(=O)N3C[C@H](O)C[C@H]3C(=O)NCc3ccc(-c4scnc4C)cc3)C(C)(C)C)C2=O)ccc1Oc1ccc(C#N)cc1C(F)(F)F [ARV N000236] | 90% |
| COc1cc(/C=C2\SC(=O)N(CCOCCOCCCCOCCOCCOc3cc(-c4scnc4C)ccc3CNC(=O)[C@@H]3C[C@@H](O)CN3C(=O)[C@H](C(C)C)N3Cc4ccccc4C3=O)C2=O)ccc1Oc1ccc(C#N)cc1C(F)(F)F [ARV N000265] | 80% |
| COc1cc(/C=C2\SC(=O)N(CCOCCOCCCCOCCCCOCCOCCOc3cc(-c4scnc4C)ccc3CNC(=O)[C@@H]3C[C@@H](O)CN3C(=O)[C@H](C(C)C)N3Cc4ccccc4C3=O)C2=O)ccc1Oc1ccc(C#N)cc1C(F)(F)F [ARV N000266] | 50% |
| COc1cc(/C=C2\SC(=O)N(CCOCCOCCCCCOCCOCCOCC(=O)N[C@H](C(=O)N3C[C@H](O)C[C@H]3C(=O)NCc3ccc(-c4scnc4C)cc3)C(C)(C)C)C2=O)ccc1Oc1ccc(C#N)cc1C(F)(F)F [ARV N000267] | 80% |
| COc1cc(/C=C2\SC(=O)N(Cc3cccc(CC(=O)N[C@H](C(=O)N4C[C@H](O)C[C@H]4C(=O)NCc4ccc(-c5scnc5C)cc4)C(C)(C)C)c3)C2=O)ccc1Oc1ccc(C#N)cc1C(F)(F)F [ARV N000382] | 98% |
| COc1cc(/C=C2\SC(=O)N(Cc3ccc(CC(=O)N[C@H](C(=O)N4C[C@H](O)C[C@H]4C(=O)NCc4ccc(-c5scnc5C)cc4)C(C)(C)C)cc3)C2=O)ccc1Oc1ccc(C#N)cc1C(F)(F)F [ARV N000413] | 98% |

Now from value to compound:

| Dmax | Compound |
| --- | --- |
| 80% | COc1cc(/C=C2\SC(=O)N(CCOCCOCCCCOCCOCCOCC(=O)N[C@H](C(=O)N3C[C@H](O)C[C@H]3C(=O)NCc3ccc(-c4scnc4C)cc3)C(C)(C)C)C2=O)ccc1Oc1ccc(C#N)cc1C(F)(F)F [ARV N000244] |
| 40% | COc1cc(/C=C2\SC(=O)N(CCCCOCCCCOCCCCCCC(=O)N[C@H](C(=O)N3C[C@H](O)C[C@H]3C(=O)NCc3ccc(-c4scnc4C)cc3)C(C)(C)C)C2=O)ccc1Oc1ccc(C#N)cc1C(F)(F)F [ARV N000245] |
| 90% | COc1cc(/C=C2\SC(=O)N(CCCCOCCCCOCCCCCC(=O)N[C@H](C(=O)N3C[C@H](O)C[C@H]3C(=O)NCc3ccc(-c4scnc4C)cc3)C(C)(C)C)C2=O)ccc1Oc1ccc(C#N)cc1C(F)(F)F [ARV N000246] |
| 98% | COc1cc(/C=C2\SC(=O)N(Cc3ccccc3CC(=O)N[C@H](C(=O)N3C[C@H](O)C[C@H]3C(=O)NCc3ccc(-c4scnc4C)cc3)C(C)(C)C)C2=O)ccc1Oc1ccc(C#N)cc1C(F)(F)F [ARV N000381] |
| 98% | COc1cc(/C=C2\SC(=O)N(CCOCCOCCOCC(=O)N[C@H](C(=O)N3C[C@H](O)C[C@H]3C(=O)NCc3ccc(-c4scnc4C)cc3)C(C)(C)C)C2=O)ccc1Oc1ccccc1C(F)(F)F [ARV N000383] |
